Test results reported in article PMC9866191, “Novel 9-Benzylaminoacridine Derivatives as Dual Inhibitors of Phosphodiesterase 5 and Topoisomerase II for the Treatment of Colon Cancer” (Molecules, 2023).

Columns and labels:
HCT-116 cells = assay: Cell cycle analysis (PI, flow cytometry); format: cell-based, human; settings: 10 µM, 24 h, PI staining
Procedure: To analyze cell cycle changes, cells permeated at 1 × 10^6 × cells/mL were trypsinized and diluted and then fixed in 70% ethanol at 4 °C. Cell cycle arrest in HCT-116 cells following compound exposure was accomplished using propidium iodide (Sigma-Aldrich, St. Louis, MI, USA). The markers were then assessed using a FACS-Caliburflow cytometer (Beckman Coulter, Taipei, Taiwan) and analyzed using WinMDI software. […]
Figure 3 Apoptosis induction and cell cycle effects of compounds in HCT-116 cells. (A) The apoptotic population of HCT-116 cells was analyzed using flow cytometry after treatment with 10 µM of the test compound for 24 h followed by Annexin V/propidium iodide (PI) staining. (B) After treatment with compound concentrations of 10 µM for 24 h, cells were fixed, stained with propidium iodide (PI), and analyzed for cell cycle distribution. Results are expressed as the means ± SD from three independent experiments (* p < 0.05 and ** p < 0.01 *** p < 0.001, control versus compound).

HCT-116 = assay: MTT cell proliferation assay, HCT-116; settings: for % Inhibition at 10 µM: 72 h MTT, means ± SD; for IC50: read-out: IC50 μM, 72 h MTT, means ± SD, three experiments
Procedure: In the MTT assay, 96-well culture plates were used. A total of 7 × 10^4 cells per well were seeded, and test materials were added to the cells at various concentrations [47, 48]. Human cancer and non-cancer cell lines were purchased commercially from the American Type Culture Collection (ATCC). After 72 h, the cytotoxicity of the compounds and paclitaxel (as a positive control group) was detected using the MTT method (thiazolyl blue tetrazolium bromide, Sigma-M2128). Absorbance values at 570 and 620 nm (OD = OD570–OD620) were measured using an ELISA reader (Anthos Labtec Instruments, Salzburg, Austria).

SF-268 = assay: NCI-60 one-dose screen; format: cell-based; settings: Homo sapiens; SF-268, CNS Cancer panel; single dose 10^−5 M; read-out: Growth inhibition %
A549/ATCC = assay: NCI-60 one-dose screen; format: cell-based; settings: Homo sapiens, Non-small cell lung panel, single dose 10^−5 M, read-out: Growth inhibition %
CAKI-1 = assay: NCI-60 one-dose screen; format: cell-based; settings: Homo sapiens; CAKI-1, Renal Cancer panel; single dose 10^−5 M; read-out: Growth inhibition %
human DNA Topo II = target: T1, human DNA Topo II (Homo sapiens, UniProt P11388); assay: Topo II-mediated relaxation of supercoiled pHOT1 plasmid DNA; format: biochemical; settings: for DNA band pattern in Topo II relaxation assay: at 1 and 5 µM doses, similar to doxorubicin; for concentration at which Topo II inhibition (increase of supercoiled DNA) is shown: cell-free relaxation assay, gel
T1 construct: purchased Topogen, Columbus, OH, USA
T1 sequence (P11388 whole entry): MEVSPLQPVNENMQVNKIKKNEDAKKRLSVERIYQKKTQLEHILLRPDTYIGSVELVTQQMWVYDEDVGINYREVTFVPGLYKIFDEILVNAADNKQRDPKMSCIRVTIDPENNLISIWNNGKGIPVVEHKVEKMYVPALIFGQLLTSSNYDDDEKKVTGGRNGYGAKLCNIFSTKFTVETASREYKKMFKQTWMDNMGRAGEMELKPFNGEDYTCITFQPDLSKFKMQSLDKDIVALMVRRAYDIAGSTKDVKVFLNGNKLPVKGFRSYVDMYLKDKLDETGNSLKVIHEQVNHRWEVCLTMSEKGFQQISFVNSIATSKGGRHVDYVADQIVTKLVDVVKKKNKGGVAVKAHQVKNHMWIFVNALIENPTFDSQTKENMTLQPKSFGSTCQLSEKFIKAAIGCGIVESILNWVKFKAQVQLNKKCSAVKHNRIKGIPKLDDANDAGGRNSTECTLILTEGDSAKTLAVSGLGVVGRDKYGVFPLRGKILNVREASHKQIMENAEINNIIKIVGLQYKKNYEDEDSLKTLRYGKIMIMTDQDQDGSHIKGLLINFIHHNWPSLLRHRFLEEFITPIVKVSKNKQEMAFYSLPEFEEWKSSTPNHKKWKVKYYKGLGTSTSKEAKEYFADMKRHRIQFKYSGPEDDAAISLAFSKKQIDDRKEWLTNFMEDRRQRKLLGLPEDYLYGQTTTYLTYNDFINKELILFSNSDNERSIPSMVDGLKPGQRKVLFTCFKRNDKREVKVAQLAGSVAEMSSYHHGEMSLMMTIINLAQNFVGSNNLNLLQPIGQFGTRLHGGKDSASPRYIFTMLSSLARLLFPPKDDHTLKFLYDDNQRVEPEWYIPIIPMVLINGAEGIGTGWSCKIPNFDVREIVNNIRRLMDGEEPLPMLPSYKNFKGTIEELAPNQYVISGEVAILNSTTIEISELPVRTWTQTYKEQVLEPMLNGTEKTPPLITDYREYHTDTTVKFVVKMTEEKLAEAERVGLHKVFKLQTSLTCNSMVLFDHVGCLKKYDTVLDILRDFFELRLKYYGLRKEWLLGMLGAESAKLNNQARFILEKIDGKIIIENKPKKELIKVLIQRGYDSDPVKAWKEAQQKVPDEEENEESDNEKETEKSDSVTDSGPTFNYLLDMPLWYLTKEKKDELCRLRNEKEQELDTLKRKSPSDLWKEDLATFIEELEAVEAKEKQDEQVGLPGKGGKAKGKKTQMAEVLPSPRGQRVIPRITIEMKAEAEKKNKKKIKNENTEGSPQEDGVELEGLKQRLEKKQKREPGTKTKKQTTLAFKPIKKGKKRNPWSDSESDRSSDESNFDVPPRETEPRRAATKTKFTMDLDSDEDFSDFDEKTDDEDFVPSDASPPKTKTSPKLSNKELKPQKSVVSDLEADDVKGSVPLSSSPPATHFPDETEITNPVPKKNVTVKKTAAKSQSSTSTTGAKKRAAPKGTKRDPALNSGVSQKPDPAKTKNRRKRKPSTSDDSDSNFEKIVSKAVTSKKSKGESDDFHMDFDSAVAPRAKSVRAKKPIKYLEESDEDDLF
Procedure: Consequently, the effects of the synthesized compounds on Topo II activity were evaluated with a cell-free assay using a purified human DNA Topo II-protein-mediated relaxation of the negatively supercoiled pHOT1 plasmid DNA [40]. […] Two Topo II inhibitors (doxorubicin and etoposide) were used as positive controls.
The reaction was terminated by adding 2 μL of 10% SDS, followed by 2.5 μL of proteinase K (50 μg/mL) to digest the bound protein. The system was incubated at 37 °C for 15 min. The DNA product was finally analyzed using electrophoresis on a vertical 1.5% agarose gel at 2 volts/cm in 1 × TAE buffer and photographed using the Eagle Eye II system (Stratagene, La Jolla, CA, USA).
Figure 2 Effects of compounds on topoisomerase II activity. Effects on Topo II-mediated relaxation of supercoiled pHOT1 plasmid DNA in a cell-free system. Positive control: etoposide (10 µM); doxorubicin (5 µM) used as Topo II poison (induction of linear DNA); DNA relaxation: plasmid DNA + topo IIα + solvent control. Nick, nicked DNA; Sc, supercoiled DNA; Lin, linear DNA.

| SMILES | effect on cell cycle (HCT-116 cells) | % Inhibition at 10 µM (HCT-116) [%] | IC50 (HCT-116) [µM] | inhibition at 10 µM (SF-268) [%] | inhibition at 10 µM (A549/ATCC) [%] | inhibition at 10 µM (CAKI-1) [%] | melting point [°C] | DNA band pattern in Topo II relaxation assay (human DNA Topo II) | concentration at which Topo II inhibition (increase of supercoiled DNA) is shown (human DNA Topo II) [µM] |
| --- | --- | --- | --- | --- | --- | --- | --- | --- | --- |
| c1ccc(CNc2c3ccccc3nc3ccccc23)cc1 [Compound 1, Acridin-9-yl-benzyl-amine] | arrested the cell cycle in the S phase | 67.16 ± 2.40 | 2.81 ± 0.2 | 37.4 | 71.5 | 66.9 |  |  |  |
| Cc1ccccc1CNc1c2ccccc2nc2ccccc12 [Compound 2, Acridin-9-yl-(2-methylbenzyl)-amine] | cell cycle arrest in the G2/M phase | 66.96 ± 0.14 | 4.01 ± 0.17 | 57.1 | 80.3 | 74.9 |  |  |  |
| Cc1cccc(CNc2c3ccccc3nc3ccccc23)c1 [Compound 3, Acridin-9-yl-(3-methylbenzyl)-amine] | cell cycle arrest in the G2/M phase | 66.71 ± 2.10 | 4.6 ± 0.07 | 48 | 77.4 | 82.3 |  |  |  |
| Cc1ccc(CNc2c3ccccc3nc3ccccc23)cc1 [Compound 4, Acridin-9-yl-(4-methylbenzyl)-amine] | increased the number of cells in the S phase and G2/M phase | 69.31 ± 2.09 | 3.59 ± 0.27 | 48.1 | 74 | 81.4 |  |  |  |
| COc1ccccc1CNc1c2ccccc2nc2ccccc12 [Compound 5, Acridin-9-yl-(2-methoxybenzyl)-amine] | does not affect the cell cycle | 63.71 ± 0.62 | 6.83 ± 0.31 | 34.9 | 65.8 | 54.3 |  |  |  |
| COc1cccc(CNc2c3ccccc3nc3ccccc23)c1 [Compound 6, Acridin-9-yl-(3-methoxybenzyl)-amine] |  |  |  | 28.8 | 69.8 | 64.3 | 107 to 109 |  |  |
| COc1ccc(CNc2c3ccccc3nc3ccccc23)cc1 [Compound 7, Acridin-9-yl-(4-methoxybenzyl)-amine] |  |  |  | 36.6 | 71.1 | 70.7 | 116 to 118 |  |  |
| Fc1ccccc1CNc1c2ccccc2nc2ccccc12 [Compound 8, Acridin-9-yl-(2-fluorobenzyl)-amine] | cell cycle arrest in the G2/M phase | 66.44 ± 0.80 | 3.05 ± 0.15 | 20.1 | 65.9 | 64.2 |  | larger base pair band than nicked DNA |  |
| Fc1cccc(CNc2c3ccccc3nc3ccccc23)c1 [Compound 9, Acridin-9-yl-(3-fluorobenzyl)-amine] | cell cycle arrest in the G2/M phase | 57.06 ± 1.36 | 7.3 ± 0.33 | 37.9 | 70.8 | 73 |  | larger base pair band than nicked DNA |  |
| Fc1ccc(CNc2c3ccccc3nc3ccccc23)cc1 [Compound 10, Acridin-9-yl-(4-fluorobenzyl)-amine] | increased the number of cells in the S phase and G2/M phase | 67.57 ± 0.29 | 2.75 ± 0.04 | 46.8 | 76.3 | 74.5 |  |  |  |
| Clc1ccccc1CNc1c2ccccc2nc2ccccc12 [Compound 11, Acridin-9-yl-(2-chlorobenzyl)-amine] | cell cycle arrest in the G2/M phase | 63.49 ± 1.20 | 7.13 ± 0.24 | 53.4 | 80.8 | 74.8 |  | larger base pair band than nicked DNA | 0.04 |
| Clc1cccc(CNc2c3ccccc3nc3ccccc23)c1 [Compound 12, Acridin-9-yl-(3-chlorobenzyl)-amine] | cell cycle arrest in the G2/M phase | 63.40 ± 7.54 | 4.84 ± 0.05 | 39.4 | 72.1 | 71.8 |  |  | 0.2 |
| Clc1ccc(CNc2c3ccccc3nc3ccccc23)cc1 [Compound 13, Acridin-9-yl-(4-chlorobenzyl)-amine] | cell cycle arrest in the G2/M phase | 11.67 ± 4.59 |  | 32.1 | 60.7 | 58.6 | 145 to 147 |  |  |
| COc1cccc(CNc2c3ccccc3nc3ccccc23)c1OC [Compound 16, Acridin-9-yl-(2,3-dimethoxybenzyl)-amine] |  |  |  | 38.3 | 69.7 | 66.3 | 175 to 177 |  |  |
| COc1ccc(CNc2c3ccccc3nc3ccccc23)c(OC)c1 [Compound 17, Acridin-9-yl-(2,4-dimethoxybenzyl)-amine] |  |  |  | 34.3 | 64.8 | 63.8 | 170 to 172 |  |  |
| COc1ccc(CNc2c3ccccc3nc3ccccc23)cc1F [Compound 19, Acridin-9-yl-(3-fluoro-4-methoxybenzyl)-amine] |  |  |  | 50.9 | 77.2 | 78.7 | 145 to 147 |  |  |
| c1ccc(CCNc2c3ccccc3nc3ccccc23)cc1 [Compound 23, Acridin-9-yl-phenethyl-amine] |  | 40.12 ± 0.11 |  | 33.5 | 67.3 | 69.7 | 151 to 153 |  |  |
| COc1ccc2nc3ccccc3c(NCc3ccc(C)cc3)c2c1 [Compound 26, (2-Methoxyacridin-9-yl)-(4-methylbenzyl)-amine] |  | 38.11 ± 1.35 |  | 51.6 | 80.7 | 73.8 | 131 to 133 |  |  |
| COc1ccc(CNc2c3ccccc3nc3ccc(OC)cc23)cc1 [Compound 27, (2-Methoxyacridin-9-yl)-(4-methoxybenzyl)-amine] |  |  |  | 59.8 | 85.4 | 80.1 | 168 to 170 |  |  |
| COc1ccc2nc3ccccc3c(NCc3ccc(Cl)cc3)c2c1 [Compound 29, (4-Chlorobenzyl)-(2-methoxyacridin-9-yl)-amine] |  | 28.83 ± 2.64 |  | 46.5 | 76.4 | 78.6 | 178 to 180 |  |  |
